Laboratory results reported in BigSolDB 2.1.

O=S(=O)(c1ccc(O)cc1)c1ccccc1O
solubility (mole fraction)
Details	in 1,4-dioxane	in 2-butanone	in acetone	in acetonitrile	in ethanol	in ethyl acetate	in isopropanol	in methanol	in n-butanol
278.15 K	0.0184	0.101	0.106	0.00974	0.0655	0.0386	0.0656	0.0569	0.0571
280.65 K	0.0213	0.103	0.108	0.0109	0.0672	0.0402	0.068	0.0583	0.0584
283.15 K	0.0242	0.105	0.11	0.0121	0.0689	0.0415	0.0708	0.0597	0.0597
285.65 K	0.0272	0.107	0.112	0.0132	0.0706	0.0432	0.074	0.0612	0.0609
288.15 K	0.0303	0.109	0.115	0.0144	0.0725	0.0449	0.0767	0.0627	0.0621
290.65 K	0.0338	0.111	0.117	0.0156	0.0746	0.0465	0.0798	0.0643	0.0634
293.15 K	0.0376	0.113	0.12	0.0169	0.0766	0.0482	0.0825	0.0661	0.0645
295.65 K	0.0415	0.115	0.124	0.0179	0.0785	0.0501	0.0857	0.0677	0.0658
298.15 K	0.0465	0.118	0.127	0.0192	0.0805	0.052	0.089	0.0696	0.0671
300.65 K	0.0514	0.12	0.13	0.0204	0.0827	0.054	0.0925	0.0716	0.0682
303.15 K	0.0557	0.122	0.133	0.0219	0.085	0.0562	0.0963	0.0739	0.0694
305.65 K	0.0611	0.125	0.136	0.0236	0.0872	0.0585	0.1	0.0763	0.0707
308.15 K	0.0664	0.127	0.139	0.0252	0.0898	0.0609	0.104	0.0786	0.0719
310.65 K	0.0713	0.13	0.142	0.0271	0.0928	0.0637	0.109	0.0809	0.0734
313.15 K	0.077	0.134	0.146	0.0295	0.0957	0.0669	0.113	0.0838	0.0751
